The source made the active and inactive calls.
What was measured:
[1] = growth suppression of beta-catenin-knockout colon cells, dose response, cell-based, HCT116, human colon tumor (AID 1045); format: functional;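 also: HCT116 colon tumor cells with beta catenin knocked out; cells exposed to compound for 60 hours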
[2] = growth suppression of PTEN-null colon cells, dose response, cell-based, HCT116 PTEN knockout (AID 1047); format: functional;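 also: HCT116 colon tumor cells with PTEN knocked out; cells exposed to compound for 60 hours before readout; potency for loss of cell viability measured by luminescence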
[3] = biological target: T1, Sentrin-specific protease 8 (Homo sapiens, UniProt Q96LD8); format: functional
T1 sequence (Q96LD8 whole entry): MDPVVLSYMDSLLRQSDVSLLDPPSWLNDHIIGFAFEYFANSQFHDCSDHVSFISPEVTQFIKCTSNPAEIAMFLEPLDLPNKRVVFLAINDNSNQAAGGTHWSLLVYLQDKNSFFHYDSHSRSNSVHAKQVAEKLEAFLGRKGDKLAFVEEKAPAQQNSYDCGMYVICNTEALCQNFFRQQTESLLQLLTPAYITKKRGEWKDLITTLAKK

[4] = biological target: T1, Sentrin-specific protease 8; format: functional; remark: listed apart in the source
[5] = biological target: T2, Mannose-6-phosphate isomerase (Homo sapiens, UniProt P34949); assay: human PMI inhibitors, high substrate, primary screen, biochemical, fluorescence intensity, high mannose 6-phosphate (AID 1220)
T2 sequence (P34949 whole entry): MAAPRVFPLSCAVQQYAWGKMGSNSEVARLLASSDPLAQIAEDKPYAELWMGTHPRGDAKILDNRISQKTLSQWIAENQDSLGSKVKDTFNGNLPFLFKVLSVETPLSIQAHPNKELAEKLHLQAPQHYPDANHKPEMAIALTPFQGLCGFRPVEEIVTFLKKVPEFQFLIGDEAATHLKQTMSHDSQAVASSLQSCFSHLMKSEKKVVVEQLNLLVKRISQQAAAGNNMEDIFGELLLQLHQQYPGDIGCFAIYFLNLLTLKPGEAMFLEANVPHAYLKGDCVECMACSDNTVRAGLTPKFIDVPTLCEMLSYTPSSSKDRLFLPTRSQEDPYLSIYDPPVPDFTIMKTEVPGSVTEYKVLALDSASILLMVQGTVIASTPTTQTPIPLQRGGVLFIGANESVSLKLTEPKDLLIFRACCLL

[6] = HepG2 cell cytotoxicity, dose response, cytotoxicity control for Shn3 inhibitor project, CellTiter-Glo, cherry-picked (AID 624134); format: functional, cell-based
[7] = Shn3 3'UTR reporter inhibitors, dose response, cell-based, Clone20 osteoblasts, firefly luciferase, cherry-picked (AID 624132); format: functional;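 also: firefly luciferase luminescence from reporter carrying the Shn3 3'UTR in osteoblasts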
[8] = biological target: T3, Carboxy-terminal domain RNA polymerase II polypeptide A small phosphatase 1 (Homo sapiens, UniProt Q9GZU7); assay: inhibitors of CTDSP1, concentration-response testing, biochemical assay, absorbance-based, actives from ultra-high-throughput screening (AID 540297); format: functional
T3 sequence (Q9GZU7 whole entry): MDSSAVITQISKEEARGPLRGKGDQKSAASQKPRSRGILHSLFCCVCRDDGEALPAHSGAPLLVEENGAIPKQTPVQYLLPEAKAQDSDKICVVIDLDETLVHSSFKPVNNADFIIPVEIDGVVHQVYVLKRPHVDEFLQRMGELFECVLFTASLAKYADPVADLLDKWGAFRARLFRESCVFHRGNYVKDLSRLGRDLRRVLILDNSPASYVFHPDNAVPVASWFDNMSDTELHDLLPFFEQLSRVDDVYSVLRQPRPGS

[9] = control 3'UTR Renilla luciferase suppression, dose response, counter-screen for Shn3 inhibitor project, cell-based, Clone20-Shn3RL, cherry-picked (AID 624133); format: functional
[10] = biological target: T4, Heat shock factor protein 1 (Mus musculus, UniProt P38532); assay: inhibition of MG132-induced HSE-luciferase signal, confirmation, cell-based, NIH3T3, luminescence, dose retest (AID 2382); format: functional;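 also: NIH3T3 fibroblasts with HSF1-driven luciferase reporter stressed by proteasome inhibitor MG132; luminescence from HSF1-driven luciferase expression after 8 hours of MG132 stress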
T4 sequence (P38532 whole entry): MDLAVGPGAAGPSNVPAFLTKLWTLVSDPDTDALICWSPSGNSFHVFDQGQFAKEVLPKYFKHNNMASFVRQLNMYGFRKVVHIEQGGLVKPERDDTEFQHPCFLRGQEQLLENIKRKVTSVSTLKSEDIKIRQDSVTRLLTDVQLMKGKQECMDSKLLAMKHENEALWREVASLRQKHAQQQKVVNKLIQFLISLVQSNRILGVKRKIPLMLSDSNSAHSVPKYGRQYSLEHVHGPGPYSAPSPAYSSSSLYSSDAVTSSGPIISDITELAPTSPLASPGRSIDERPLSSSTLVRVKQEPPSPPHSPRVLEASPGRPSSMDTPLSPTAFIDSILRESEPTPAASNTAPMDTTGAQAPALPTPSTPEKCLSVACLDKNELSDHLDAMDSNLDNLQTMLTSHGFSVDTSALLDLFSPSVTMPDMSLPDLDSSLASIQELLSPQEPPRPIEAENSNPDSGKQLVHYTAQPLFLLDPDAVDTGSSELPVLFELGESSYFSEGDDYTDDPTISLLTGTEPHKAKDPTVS

[11] = biological target: T5, Microphthalmia-associated transcription factor (Homo sapiens, UniProt O75030); assay: TRPM1 promoter luciferase signal decrease, dose response, MITF inhibitor project, cell-based, SK-MEL-5, cherry-picked, set 3 (AID 493073); format: functional
T5 sequence (O75030 whole entry): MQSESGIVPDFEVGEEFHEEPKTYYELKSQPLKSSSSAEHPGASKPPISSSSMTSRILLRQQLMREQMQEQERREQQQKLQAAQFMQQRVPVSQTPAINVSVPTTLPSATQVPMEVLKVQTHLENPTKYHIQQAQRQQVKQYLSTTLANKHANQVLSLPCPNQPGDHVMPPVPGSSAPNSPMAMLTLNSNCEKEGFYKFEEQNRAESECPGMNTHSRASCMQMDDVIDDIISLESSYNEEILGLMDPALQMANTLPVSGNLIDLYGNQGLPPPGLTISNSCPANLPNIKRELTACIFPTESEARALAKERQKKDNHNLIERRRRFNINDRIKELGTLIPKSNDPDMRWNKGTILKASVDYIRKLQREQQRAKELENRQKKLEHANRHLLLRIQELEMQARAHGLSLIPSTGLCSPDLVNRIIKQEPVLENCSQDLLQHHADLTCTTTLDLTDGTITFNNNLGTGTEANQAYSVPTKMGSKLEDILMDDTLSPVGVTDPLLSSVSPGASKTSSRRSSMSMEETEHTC

[12] = Luminescence Cell-Based Dose Retest to Confirm Inhibitors of Cancer Stem Cells. [Related pubchem assays (depositor defined):AID2717, AID2721]; format: functional; details: Homo sapiens
[13] = inhibitors of intracellular T. cruzi replication, confirmation, NIH3T3 host cells, beta-gal luminescence (AID 2044); format: functional, cell-based;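 also: intracellular parasites grown in NIH/3T3 mouse fibroblasts as host cells; luminescent beta-galactosidase reporter signal from transgenic T. cruzi replicating inside host cells; inhibitors lower the luminescence signal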
[14] = cytotoxicity toward NIH3T3 fibroblasts, dose response, counter-screen, cell-based, ATP luminescence, mouse fibroblasts (AID 2010); format: functional;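 also: cells exposed to compound for about 90 hours before reading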
INS1 = assay: beta cell apoptosis inhibitors, cytokine rescue, dose response, luminescence, retest (AID 449756); format: functional, cell-based; details: Rattus norvegicus;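 also: cell death triggered by IL-1 beta plus TNF-alpha plus IFN-gamma mixture; protective hits raise ATP signal compared with cytokine alone wells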
[15] = microbe, parasite or virus in culture; format: functional; details: Mycobacterium tuberculosis
[16] = Luminescence Cell-Based Dose Response HTS to Identify Inhibitors of 5'UTR Stem-Loop Driven Prion Protein mRNA Translation in H4 Neuroglioblastoma Cells. [Related pubchem assays: 1827 (Project Summary), 1813 (Primary HTS)]; format: functional
[17] = inhibitors of firefly luciferase expression or activity, dose response, H4 neuroglioma cells, luminescence (AID 1990); format: functional, cell-based
H9c2 = assay: cells; format: functional, cell-based; details: Rattus norvegicus, H9c2, Myocardium;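 also: confirmatory concentration-response retest of ultra-high-throughput screening hits for modulation of myocardial damage; cell death induced by hydrogen peroxide oxidative stress; compound pretreatment for 60 min then peroxide exposure for 2 h; potency is for protecting the cells against peroxide damage rather than for killing them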
[18] = inhibitors of SNCA 5'UTR-driven reporter translation, confirmation, H4 neuroglioma cells, luminescence (AID 1988); format: functional, cell-based
[19] = inhibitors of clade B AD8 Env fusion, dose response, cell-based, cherry-pick (AID 652062); format: functional;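 also: luciferase signal from cell-cell fusion driven by HIV-1 clade B AD8 Env; potency is for inhibitors of fusion seen as a drop in luminescence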

SMILES: Cc1cc(S(=O)(=O)N2CCN(Cc3ccc4c(c3)OCO4)CC2)cc(C)c1N1CCCC1=O
- EC50 [1]: 36 µM (active)
- EC50 [2]: 45.7 µM (active)

SMILES: CN(c1ccc(C(=O)N2CCc3ccccc3C2)cc1)S(C)(=O)=O
- IC50 [3]: 90.5 µM (inactive)
- IC50 [4]: 13.1 µM (active)

SMILES: Cn1cccc1/C=C1\CCc2ccccc2C1=O
- IC50 [5]: > 50 µM (not active)

SMILES: COC(=O)CCC(=O)OC1(C)C(=O)C=C2C=C3CCCN3C=C2C1=O (stereo not drawn)
- IC50 [3]: 6.06 µM (active)
- IC50 [4]: 7.67 µM (active)

SMILES: COc1ccc(Nc2nc(N)nc(CN3CCC(Cc4ccccc4)CC3)n2)cc1
- EC50 [1]: 23.5 µM (active)
- EC50 [2]: 17.7 µM (active)

SMILES: CC(C)(C)OC(=O)NCc1ccc(CNC(=O)c2nc[nH]c2C(=O)NCc2ccc(CNC(=O)OC(C)(C)C)cc2)cc1
- AC50 [6]: > 70 µM (inactive)
- AC50 [7]: 5.89 µM (active)

SMILES: O=C(/C=C/c1ccco1)N1CCN(S(=O)(=O)c2ccccc2)CC1
- IC50 [8]: 4.94 µM (active)

SMILES: CC(NC(=O)Nc1cccc([N+](=O)[O-])c1)(C(F)(F)F)C(F)(F)F
- EC50 [1]: 12.3 µM (active)
- EC50 [2]: 12 µM (active)

SMILES: Cc1ccc(C(NC(=O)C2CCCCC2)c2c(O)ccc3ccccc23)cc1 (stereo not drawn)
- EC50 [1]: 21.5 µM (active)
- EC50 [2]: 17.4 µM (active)

SMILES: COc1ccccc1N=C(N)Nc1nc(O)cc(CSc2ccc(C)cc2)n1
- AC50 [9]: 12.4 µM (active)
- AC50 [6]: 59.8 µM (active)
- AC50 [7]: 2.95 µM (active)

SMILES: COc1ccccc1N(CC(=O)NCc1ccco1)S(=O)(=O)c1ccc(C)cc1
- IC50 [8]: 5.17 µM (active)

SMILES: NC(=S)NNc1cccc2cccnc12
- IC50 [3]: 7.91 µM (active)
- IC50 [4]: 6 µM (active)

SMILES: OCCC1CN(Cc2c(O)ccc3ccccc23)CCN1CCc1ccccc1 (stereo not drawn)
- IC50 [5]: > 50 µM (not active)

SMILES: CN1CCN(CC(=O)n2c3c(c4ccccc42)CCCC3)CC1
- EC50 [10]: > 195 µM (not active)
- IC50 [3]: > 100 µM (inactive)
- IC50 [4]: 16.6 µM (active)

SMILES: CC1CC(C)CN(C(=O)/C=C/c2ccc([N+](=O)[O-])s2)C1 (stereo not drawn)
- AC50 [11]: 11.9 µM (active)

SMILES: Cc1ccc(C(=O)N2C(=S)C(c3ccc(F)cc3)=NC23CCN(C)CC3)cc1
- IC50 [3]: > 100 µM (inactive)
- IC50 [4]: 15 µM (active)

SMILES: Cc1ccc(C(=O)OCC(=O)c2ccc(CC(=O)N3CCOCC3)s2)cc1C
- IC50 [8]: 5.01 µM (active)

SMILES: COc1ccc(C2c3ccc4ccccc4c3Oc3ncn(Cc4ccco4)c(=N)c32)cc1OC (stereo not drawn)
- EC50 [1]: 8.96 µM (active)
- EC50 [2]: 7.09 µM (active)
- AC50 [12]: 3.94 µM (active)

SMILES: Cc1cc(N2CCOCC2)nc2ccc(NC(=S)N3CCCCC3C)cc12 (stereo not drawn)
- IC50 [5]: > 50 µM (not active)

SMILES: COc1cc(NC(c2ccccc2)c2ccccc2)cc(OC)c1OC
- IC50 [5]: > 50 µM (not active)

SMILES: O=C(/C=C/c1ccc(Cl)cc1)NC(=S)Nc1ccccc1C(=O)O
- IC50 [8]: 8.66 µM (active)

SMILES: Cc1ccc(C#CC[N+]2(CC#Cc3ccc(C)cc3)CCCCC2)cc1
- EC50 [13]: 0.344 µM (active)
- EC50 [14]: > 60 µM (inconclusive)
- AC50 (INS1): 2.04 µM (active)
- AC50 [11]: 3.95 µM (active)
- CC50 [15]: > 40 µM (active)

SMILES: CC(Oc1ccc(F)cc1)C(=O)Nc1nc(-c2ccccn2)cs1 (stereo not drawn)
- EC50 [16]: 10.2 µM (active)
- EC50 [17]: > 120 µM (not active)
- IC50 (H9c2): > 79 µM (inactive)
- AC50 [11]: 9.42 µM (active)
- EC50 [18]: > 120 µM (not active)

SMILES: Nc1ccn([C@@H]2O[C@H](C(=O)NCc3ccc4c(c3)OCO4)[C@@H](O)[C@H]2O)c(=O)n1
- AC50 [19]: 0.723 µM (active)

SMILES: CC(=O)N(CCc1ccccc1)c1ccc2c(c1)C1CC2CCN1C(=O)OCc1ccccc1 (stereo not drawn)
- AC50 [6]: > 70 µM (inactive)
- AC50 [7]: 14.3 µM (active)

SMILES: Cn1nc(C(C)(C)C)cc1C(=O)N1CCCCC1c1cc(C(=O)Nc2ccc(F)c(Cl)c2)no1 (stereo not drawn)
- AC50 [9]: 5.06 µM (active)
- AC50 [6]: 5.09 µM (active)
- AC50 [7]: 3.04 µM (active)

SMILES: CCS(=O)(=O)N1CCCC(C(=O)N2CCc3ccccc3C2)C1 (stereo not drawn)
- IC50 [3]: 71.7 µM (inactive)
- IC50 [4]: 17.7 µM (active)

SMILES: O=C(CNC(=O)c1ccccc1)N/N=C/c1ccc([N+](=O)[O-])s1
- EC50 [13]: 0.285 µM (active)
- EC50 [14]: 12.7 µM (active)
- AC50 [11]: 5.34 µM (active)

SMILES: COc1ccc(/C=N/NC(=O)c2cccc(NC(=O)c3ccc(Cl)cc3)c2)c(OC)c1
- IC50 [8]: 6.27 µM (active)

Reference: ChEMBL document CHEMBL1201862, “PubChem BioAssay data set” (2004)
